This note sets out measurements from patent EP4289427A1, “DIHYDRO[1,8]NAPHTHYRIDIN-7-ONE AND PYRIDO[3,2-B][1,4]OXAZIN-3-ONE FOR USE IN TREATING CANCER, AND METASTASES IN PARTICULAR” (Anagenesis Biotechnologies, priority 2022, dated 2023).

Data set [1] has as its system RD cells. Kind of data set: Cytotoxicity assay (CellTiter-Glo 2.0) on RD cells. The note with it: for IC50: Homo sapiens. It is filed as cell-based, Human. As to the method: (§1) Cytotoxicity assays consist in treating cells with compounds and assessing remaining viability after a defined incubation time, depending on the cell line. CellTiter-Glo® 2.0 reagent allows viability measurement by quantification of ATP present, which is an indicator of metabolically active cells.
(§2) The cancer cell lines were cultivated in their respective growth medium (see tables 6a and 6b). On day 0 of the cytotoxicity assay, the cells were harvested and seeded into a 384-well plate at a defined density in their respective growth medium (see tables 6a and 6b). Compounds to be tested were then added onto the cells and incubated for a defined duration (see tables 6a and 6b). Following incubation, CellTiter-Glo® 2.0 reagent (cat.no. G9241 from Promega) was added into the wells (vol/vol, according to the manufacturer's recommendations), plates were gently shaken and incubated for 10 minutes in the dark at room temperature. Bioluminescence was then measured with a multimode plate reader (Victor Nivo from Perkin Elmer), and cell viability and relative IC50 were determined. Table 6a: Cancer cell characteristics, culture and cytotoxic assay conditions
In general terms: In ATP-based viability assays light output follows the ATP content of the culture.

Data set [2] has as its system 4T1 cells. Put plainly: Cytotoxicity assay (CellTiter-Glo 2.0) on 4T1 cells. It counts as cell-based, Mouse. The note with it: incubation 2 days; for IC50: Mus musculus, 48 h. The protocol: as §1, §2
The subject of data set [3] is MDA-MB-231 cells. Put plainly: Cytotoxicity assay (CellTiter-Glo 2.0) on MDA-MB-231 cells. It counts as cell-based, Human. The settings on record: incubation 3 days; for IC50: Homo sapiens, 72 h. The protocol: as §1, §2
Data set [4] relates to EoL-1 cells. Put plainly: Cytotoxicity assay (CellTiter-Glo 2.0) on EoL-1 cells. It is filed as cell-based, Human. The note with it: incubation 1 day; for IC50: Homo sapiens, EOL1, 24 h. The protocol: as §1, §2
For data set [5], the system named is HUVECs. Kind of data set: Tube formation assay (anti-angiogenic activity). It counts as cell-based, human. The note with it: incubation 16 to 18 hours; for IC50: Homo sapiens, HUVEC. The source says: Angiogenesis is a phenomenon that includes different processes, such as endothelial cell proliferation, migration and differentiation that lead to the formation of new blood vessels. Tube formation assay is a standard in vitro test to assess angiogenesis: briefly, human Umbilical Vein Endothelial cells (hereafter "HUVECs") cultivated on a gelled basement matrix spontaneously proliferate, migrate and differentiate to form tube-like structures, that appear elongated and that connect to each other to form a network.
HUVECs were cultivated in Endothelial Cell Growth Medium (cat.no. C-22010 from Promocell) supplemented with 1% PenStrep (hereafter "HUVEC medium"). On day 0, HUVECs were harvested and transferred into a 384-well plate precoated with 10 µl/well of Cultrex UltiMatrix Reduced Growth factor basement membrane (cat.no. BME001-10 from BioTechne), according to the manufacturer's instructions, at a density of 5000 cells/well in HUVEC medium. Compounds to be tested were then added onto the cells and incubated for 16 to 18 hours at 37°C. After this incubation period, the cells were stained with calcein-AM (cat.no. 10462052 from Fisher Scientific) and pictures were acquired using a confocal fluorescent microscope (IXM from Molecular Devices). Tube formation was measured with MetaXpress® Software.

Each structure is given as a SMILES string.

Regarding `CSc1cc(Oc2ccnc3c2CCC(=O)N3)ccc1NC(=O)Nc1cc(C(C)(C)C)nn1-c1ccc(CN2CCOCC2)cc1` [Compound 042, 1-[5-tert-butyl-2-[4-(morpholinomethyl)phenyl]pyrazol-3-yl]-3-[2-methylsulfanyl-4-[(7-oxo-6,8-dihydro-5H-1,8-naphthyridin-4-yl)oxy]phenyl]urea], the Cytotoxicity entry in data set [1] (2 day-treatment) is listed as “++ (50% ≤ cytotoxicity < 85%)”; in data set [1] (4 day-treatment) it was “++ (50% ≤ cytotoxicity < 85%)”; in data set [2], “+++ (cytotoxicity ≥ 85%)”; in data set [3], “++ (50% ≤ cytotoxicity < 85%)”; in data set [4], “+++ (cytotoxicity ≥ 85%)”. Besides, the IC50 – broadly, the concentration at which inhibition is half-maximal – was 1000 to 5000 nM in data set [1] (48 h, 2 day-treatment); 1000 to 5000 nM in data set [1] (96 h, 4 day-treatment); below 1000 nM in data set [2]; 1000 to 5000 nM in data set [3]; 1 to 10 nM in data set [4]; below 100 nM in data set [5]. Besides, the Angiogenesis inhibition entry in data set [5] is given as “+++ (angiogenesis inhibition ≥ 80%)”.

Consider `CSc1cc(Oc2ccnc3c2CCC(=O)N3)ccc1NC(=O)Nc1cc(C(C)(C)C)nn1-c1cccc(CN(C)C)c1` [Compound 050, 1-[5-tert-butyl-2-[3-(dimethylaminomethyl)phenyl]pyrazol-3-yl]-3-[2-methylsulfanyl-4-[(7-oxo-6,8-dihydro-5H-1,8-naphthyridin-4-yl)oxy]phenyl]urea], for which the Cytotoxicity entry in data set [1] (2 day-treatment), in data set [1] (4 day-treatment), in data set [2], in data set [3] and in data set [4] was “+++ (cytotoxicity ≥ 85%)” throughout. Also, the IC50 in data set [1] (48 h, 2 day-treatment) is 1000 to 5000 nM; in data set [1] (96 h, 4 day-treatment), 1000 to 5000 nM; in data set [2] it was below 1000 nM; in data set [3] it was 1000 to 5000 nM; in data set [4], 1 to 10 nM; in data set [5], below 100 nM. For the same molecule, the Angiogenesis inhibition result in data set [5] is on record as “+++ (angiogenesis inhibition ≥ 80%)”.

Take `CSc1cc(Oc2ccnc3c2OCC(=O)N3)ccc1NC(=O)Nc1cc(C(C)(C)C)nn1-c1ccc(CCN2CCOCC2)cc1` [Compound 052, 1-[5-tert-butyl-2-[4-[2-(morpholino)ethyl]phenyl]pyrazol-3-yl]-3-[2-methylsulfanyl-4-[(3-oxo-4H-pyrido[3,2-b][1,4]oxazin-8-yl)oxy]phenyl]urea]: the Cytotoxicity entry is given as “++ (50% ≤ cytotoxicity < 85%)” in data set [1] (2 day-treatment); “++ (50% ≤ cytotoxicity < 85%)” in data set [1] (4 day-treatment); “+++ (cytotoxicity ≥ 85%)” in data set [2]; “+++ (cytotoxicity ≥ 85%)” in data set [3]; “+++ (cytotoxicity ≥ 85%)” in data set [4]. Besides, the IC50 was 1000 to 5000 nM in data set [1] (48 h, 2 day-treatment); 1000 to 5000 nM in data set [1] (96 h, 4 day-treatment); below 1000 nM in data set [2]; 1000 to 5000 nM in data set [3]; 1 to 10 nM in data set [4]; below 100 nM in data set [5]. In addition, the Angiogenesis inhibition result in data set [5] was “+++ (angiogenesis inhibition ≥ 80%)”.

Turning to `CSc1cc(Oc2ccnc3c2OCC(=O)N3)ccc1NC(=O)Nc1cc(C(C)(C)C)nn1-c1cccc(CN(C)C)c1` [Compound 041, 1-[5-tert-butyl-2-[3-(dimethylaminomethyl)phenyl]pyrazol-3-yl]-3-[2-methylsulfanyl-4-[(3-oxo-4H-pyrido[3,2-b][1,4]oxazin-8-yl)oxy]phenyl]urea], the Cytotoxicity entry in data set [1] (2 day-treatment), in data set [1] (4 day-treatment), in data set [2], in data set [3] and in data set [4] was “+++ (cytotoxicity ≥ 85%)” throughout. In addition, the IC50 in data set [1] (48 h, 2 day-treatment) was 1000 to 5000 nM; in data set [1] (96 h, 4 day-treatment), 1000 to 5000 nM; in data set [2] it was below 1000 nM; in data set [3] it was 1000 to 5000 nM; in data set [4], 1 to 10 nM; in data set [5] it was below 100 nM. For the same molecule, the Angiogenesis inhibition result in data set [5] was “+++ (angiogenesis inhibition ≥ 80%)”.

For `CSc1cc(Oc2ccnc3c2CCC(=O)N3)ccc1NC(=O)Nc1ncc(C(C)(C)C)s1` [Compound 004, 1-(5-(tert-butyl)thiazol-2-yl)-3-(2-(methylthio)-4-((7-oxo-5,6,7,8-tetrahydro-1,8-naphthyridin-4-yl)oxy)phenyl)urea], the Cytotoxicity result in data set [1] (2 day-treatment) was “+ (20 % ≤ cytotoxicity < 50%)”; in data set [1] (4 day-treatment), “++ (50% ≤ cytotoxicity < 85%)”; in data set [2], “+++ (cytotoxicity ≥ 85%)”; in data set [3] it was “++ (50% ≤ cytotoxicity < 85%)”; in data set [4], “+++ (cytotoxicity ≥ 85%)”. In addition, the IC50 is 1000 to 5000 nM in data set [1] (48 h, 2 day-treatment); 1000 to 5000 nM in data set [1] (96 h, 4 day-treatment); 1000 to 5000 nM in data set [2]; below 1000 nM in data set [3]; 1 to 10 nM in data set [4]; 100 to 500 nM in data set [5]. For the same molecule, the Angiogenesis inhibition entry in data set [5] is given as “+++ (angiogenesis inhibition ≥ 80%)”.

Consider `CN(C)Cc1ccc(-n2nc(C(C)(C)C)cc2NC(=O)Nc2ccc(Oc3ccnc4c3OCC(=O)N4)cc2C(F)(F)F)cc1` [Compound 049, 1-[5-tert-butyl-2-[4-(dimethylaminomethyl)phenyl]pyrazol-3-yl]-3-[4-[(3-oxo-4H-pyrido[3,2-b][1,4]oxazin-8-yl)oxy]-2-(trifluoromethyl)phenyl]urea], for which the Cytotoxicity entry in data set [1] (2 day-treatment) is on record as “+++ (cytotoxicity ≥ 85%)”; in data set [1] (4 day-treatment), “+++ (cytotoxicity ≥ 85%)”; in data set [2], “+++ (cytotoxicity ≥ 85%)”; in data set [3], “+++ (cytotoxicity ≥ 85%)”; in data set [4] it was “++ (50% ≤ cytotoxicity < 85%)”. Also, the IC50 fell in the range of 5000 to 10000 nM in data set [1] (48 h, 2 day-treatment); 5000 to 10000 nM in data set [1] (96 h, 4 day-treatment); 1000 to 5000 nM in data set [2]; 5000 to 10000 nM in data set [3]; 10 to 100 nM in data set [4]; 100 to 500 nM in data set [5]. Also, in data set [5], the Angiogenesis inhibition result is “+++ (angiogenesis inhibition ≥ 80%)”.

In the case of `CSc1cc(Oc2ccnc3c2OCC(=O)N3)ccc1NC(=O)Nc1cc(C(C)(C)C)nn1-c1ccc(CN2CCN(C)CC2)cc1` [Compound 054, 1-[5-tert-butyl-2-[4-[(4-methylpiperazin-1-yl)methyl]phenyl]pyrazol-3-yl]-3-[2-methylsulfanyl-4-[(3-oxo-4H-pyrido[3,2-b][1,4]oxazin-8-yl)oxy]phenyl]urea], the Cytotoxicity result in data set [1] (2 day-treatment), in data set [1] (4 day-treatment), in data set [2], in data set [3] and in data set [4] was “+++ (cytotoxicity ≥ 85%)” each time. Also, the IC50 in data set [1] (48 h, 2 day-treatment) is 1000 to 5000 nM; in data set [1] (96 h, 4 day-treatment) it was 1000 to 5000 nM; in data set [2], 1000 to 5000 nM; in data set [3], 1000 to 5000 nM; in data set [4], 1 to 10 nM; in data set [5], below 100 nM. Besides, the Angiogenesis inhibition entry in data set [5] is “+++ (angiogenesis inhibition ≥ 80%)”.

For `CC(C)(C)c1cc(NC(=O)Nc2ccc(Oc3ccnc4c3CCC(=O)N4)c3ccccc23)on1` [Compound 009, 1-(3-(tert-butyl)isoxazol-5-yl)-3-(4-((7-oxo-5,6,7,8-tetrahydro-1,8-naphthyridin-4-yl)oxy)naphthalen-1-yl)urea], the Cytotoxicity entry was “++ (50% ≤ cytotoxicity < 85%)” in data set [1] (2 day-treatment); “++ (50% ≤ cytotoxicity < 85%)” in data set [1] (4 day-treatment); “+++ (cytotoxicity ≥ 85%)” in data set [2]; “++ (50% ≤ cytotoxicity < 85%)” in data set [3]; “+++ (cytotoxicity ≥ 85%)” in data set [4]. In addition, the IC50 in data set [1] (48 h, 2 day-treatment) was 1000 to 5000 nM; in data set [1] (96 h, 4 day-treatment), 1000 to 5000 nM; in data set [2], below 1000 nM; in data set [3], below 1000 nM; in data set [4], 1 to 10 nM; in data set [5] it was below 100 nM. Moreover, in data set [5], the Angiogenesis inhibition entry is “+++ (angiogenesis inhibition ≥ 80%)”.
